Some test systems named below: A498 renal; HS 578T breast; LOX IMVI melanoma; MOLT-4 leukemia; NCI-H226 lung; NCI/ADR-RES ovarian; OVCAR-3 ovarian; OVCAR-4 ovarian; SF-268 CNS; SK-MEL-5 melanoma; T-47D breast; HCC-2998 colon; NCI-H460 lung; SK-OV-3 ovarian; SNB-75 CNS.
Common to all, as to experiment: NCI tumour cell line growth inhibition, 48 h

Consider ten compounds from PubChem BioAssay (NCI).

Each structure is given as a SMILES string.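 In this assay, cells in 96-well plates receive the compound at five concentrations for 48 hours. Endpoints are linearly interpolated between the surrounding concentrations. TGI: concentration producing complete growth inhibition.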

Consider `O=C1CCC(=O)N1CNc1ccc2c(c1)Sc1ccccc1O2`, for which the TGI in the assay with A498 renal was above 100 µM; in the assay with HS 578T breast, above 100 µM; with LOX IMVI melanoma, 68.9 µM; in the assay on MOLT-4 leukemia, above 100 µM; in the assay with NCI-H226 lung, 63.1 µM; with NCI/ADR-RES ovarian, above 100 µM. The TGI was 75 µM in the assay on OVCAR-3 ovarian; above 100 µM in the assay on OVCAR-4 ovarian; above 100 µM with SF-268 CNS; 70.1 µM in the assay on SK-MEL-5 melanoma; above 100 µM in the assay with T-47D breast.
Turning to `CC(=O)c1ccc(-c2oc(-c3ccccc3)cc2-c2ccc3c(c2)OCO3)s1`, the TGI with A498 renal, in the assay on HCC-2998 colon, in the assay with HS 578T breast, in the assay on MOLT-4 leukemia, in the assay on NCI-H226 lung and in the assay on NCI-H460 lung was above 100 µM each time. Moreover, the TGI in the assay with NCI/ADR-RES ovarian, with OVCAR-3 ovarian, in the assay with SF-268 CNS, with SK-MEL-5 melanoma, with SK-OV-3 ovarian and in the assay on SNB-75 CNS was above 100 µM in each case. The compound also had a TGI in the assay on T-47D breast above 100 µM.
On to `CCCCCCNC(=O)c1cc(NCc2cc(OC)ccc2OC)ccc1O`, for which the TGI in the assay on HCC-2998 colon was 68.4 µM; in the assay with HS 578T breast, 97.9 µM; with LOX IMVI melanoma it was 32.9 µM; in the assay with MOLT-4 leukemia it was 66.5 µM; in the assay with NCI-H226 lung it was 64.9 µM; in the assay on NCI-H460 lung, 84.4 µM. The TGI with NCI/ADR-RES ovarian was determined as 48.1 µM; with OVCAR-3 ovarian, 7.05 µM; in the assay with OVCAR-4 ovarian, 70.5 µM; in the assay on SF-268 CNS it was 32.3 µM; in the assay on SK-MEL-5 melanoma it was 28.4 µM; with SK-OV-3 ovarian, 36.9 µM. Further, the TGI turned out to be 76.3 µM in the assay with SNB-75 CNS and 46.1 µM in the assay on T-47D breast.
For the compound `O=C1O/C(=C\c2ccc(O)c(Br)c2)C(c2ccc(O)cc2)=C1Cl`, the TGI was 77.7 µM with A498 renal; above 100 µM with HCC-2998 colon; above 100 µM in the assay with HS 578T breast; above 100 µM with LOX IMVI melanoma; above 100 µM in the assay on MOLT-4 leukemia; 76.6 µM in the assay on NCI-H460 lung. Besides, the TGI is 82.4 µM in the assay on NCI/ADR-RES ovarian; 59.7 µM in the assay with OVCAR-3 ovarian; above 100 µM in the assay with OVCAR-4 ovarian; 86.2 µM with SF-268 CNS; 53.5 µM in the assay on SK-MEL-5 melanoma; above 100 µM in the assay on SK-OV-3 ovarian. Besides, the TGI in the assay with SNB-75 CNS and in the assay on T-47D breast was above 100 µM in each case.
As to `COC(=O)c1cc(NC2OCC(OC(C)=O)C(OC(C)=O)C2OC(C)=O)nc(SC)c1C(=O)OC` (configuration not stated), the TGI with HCC-2998 colon, in the assay on HS 578T breast, in the assay with LOX IMVI melanoma, in the assay with MOLT-4 leukemia, with NCI-H460 lung and in the assay with NCI/ADR-RES ovarian was above 100 µM in each case. The TGI in the assay with OVCAR-3 ovarian, in the assay with OVCAR-4 ovarian, with SF-268 CNS, in the assay on SK-MEL-5 melanoma, in the assay with SNB-75 CNS and in the assay on T-47D breast was above 100 µM throughout.
As to `CN(C(=O)OC(C)(C)C)[C@H]1CCCC[C@H]1N1CCCC1`, the TGI with A498 renal, in the assay on HS 578T breast, in the assay with LOX IMVI melanoma, in the assay with MOLT-4 leukemia, in the assay with NCI-H226 lung and in the assay on NCI/ADR-RES ovarian was above 100 µM in each case. In addition, the TGI with OVCAR-3 ovarian, in the assay on OVCAR-4 ovarian, with SF-268 CNS, in the assay with SK-MEL-5 melanoma, with SK-OV-3 ovarian and in the assay with T-47D breast was above 100 µM in each case.
Consider `C1COC2SC3=C(SC(=C4SC5=C(SCCS5)S4)S3)SC2O1` (configuration not stated), for which the TGI with A498 renal, with HCC-2998 colon, in the assay with HS 578T breast, in the assay on MOLT-4 leukemia, in the assay on NCI-H226 lung and in the assay with NCI-H460 lung was above 100 µM throughout. Also, the TGI in the assay with NCI/ADR-RES ovarian, in the assay on OVCAR-3 ovarian, with OVCAR-4 ovarian, with SF-268 CNS, with SK-MEL-5 melanoma and with SK-OV-3 ovarian was above 100 µM each time. The TGI in the assay with SNB-75 CNS and with T-47D breast was above 100 µM throughout.
With `COc1ccc(C2Oc3c(cccc3OC)C=C2[N+](=O)[O-])cc1OC` (configuration not stated), the TGI with HS 578T breast was above 100 µM; in the assay on LOX IMVI melanoma, 20.5 µM; in the assay with MOLT-4 leukemia, above 100 µM; with NCI-H226 lung, 78.2 µM; in the assay with NCI-H460 lung it was above 100 µM; in the assay with NCI/ADR-RES ovarian, 53.4 µM. Further, the TGI in the assay on OVCAR-3 ovarian was 67.9 µM; in the assay with OVCAR-4 ovarian it was above 100 µM; with SF-268 CNS, above 100 µM; in the assay with SK-MEL-5 melanoma, 16.1 µM; in the assay with SK-OV-3 ovarian, 17.9 µM; with SNB-75 CNS, above 100 µM. In addition, in the assay with T-47D breast, the TGI is above 100 µM.
Take `CO/C(=N/N1CC1C(F)(F)F)c1ccncc1` (configuration not stated): the TGI in the assay on A498 renal, in the assay with HS 578T breast, in the assay with MOLT-4 leukemia, in the assay on NCI-H226 lung, with NCI-H460 lung and in the assay on NCI/ADR-RES ovarian was above 100 µM in each case. The TGI in the assay with OVCAR-3 ovarian, in the assay with OVCAR-4 ovarian, in the assay with SK-MEL-5 melanoma, in the assay on SK-OV-3 ovarian, in the assay with SNB-75 CNS and with T-47D breast was above 100 µM in each case.
On to `Cc1cc(Cl)nc(NC(=O)CSc2ccc(Cl)cc2)n1`, for which the TGI with A498 renal, in the assay on HCC-2998 colon, in the assay on HS 578T breast, with LOX IMVI melanoma, with MOLT-4 leukemia and in the assay on NCI-H226 lung was above 100 µM throughout. Also, the TGI in the assay with NCI-H460 lung, in the assay on NCI/ADR-RES ovarian, in the assay with OVCAR-3 ovarian, in the assay on SF-268 CNS, in the assay with SK-MEL-5 melanoma and in the assay with T-47D breast was above 100 µM throughout.
